Test results taken from PubChem BioAssay AID1963448 (Molecular Pharmacology Branch, DTP, NCI, 2024).

Test system: 616215-338-R-J1-PDC complex spheroid growth, % test/control
Test: Anticancer human tumor 616215-338-R-J1-PDC patient-derived colon adenocarcinoma cell line growth inhibition [Asc]
Settings: for IC50: curve of first compound; for viability, T/C: stronger effect = lower value
How it was run: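 Stromal components (HUVEC and hMSC) are co-assembled with the cancer cells into multicellular spheroids. Drugs are then added singly or paired, at concentrations falling by half-log increments from a clinically achievable maximum, capped at 10 microM without known Cmax.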
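Note: spheroids exposed to agents for seven days before readout.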
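Throughout, for viability, T/C: 100% = DMSO vehicle control viability.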

C#Cc1c(F)ccc2cc(O)cc(-c3ncc4c(N5CC6CCC(C5)N6)nc(OCC56CCCN5CC(F)C6)nc4c3F)c12 (stereo not given) + CCN1C(C(=O)NC23CCC(C(=O)O)(CC2)CC3)C(c2cccc(Cl)c2F)C2(C(=O)Nc3cc(Cl)ccc32)C12CCCCC2
IC50 (second compound 0.03 µM): > 10000 nM | IC50 (second compound 0.0949 µM): > 10000 nM | IC50 (second compound 0.3 µM): 1710 nM | IC50 (second compound 0.949 µM): 1630 nM | IC50 (second compound 3 µM): < 31.6 nM | viability, T/C (second compound 0.03 µM, first compound 0.0316 µM): 91.1% | viability, T/C (second compound 0.03 µM, first compound 0.1 µM): 98.6% | viability, T/C (second compound 0.03 µM, first compound 0.316 µM): 93.5% | viability, T/C (second compound 0.03 µM, first compound 1 µM): 94.3% | viability, T/C (second compound 0.03 µM, first compound 3.16 µM): 84.4% | viability, T/C (second compound 0.03 µM, first compound 10 µM): 67.5% | viability, T/C (second compound 0.0949 µM, first compound 0.0316 µM): 84.9% | viability, T/C (second compound 0.0949 µM, first compound 0.1 µM): 85.3% | viability, T/C (second compound 0.0949 µM, first compound 0.316 µM): 91.4% | viability, T/C (second compound 0.0949 µM, first compound 1 µM): 82.5% | viability, T/C (second compound 0.0949 µM, first compound 3.16 µM): 80.3% | viability, T/C (second compound 0.0949 µM, first compound 10 µM): 68.1% | viability, T/C (second compound 0.3 µM, first compound 0.0316 µM): 56.4% | viability, T/C (second compound 0.3 µM, first compound 0.1 µM): 57.1% | viability, T/C (second compound 0.3 µM, first compound 0.316 µM): 61.6% | viability, T/C (second compound 0.3 µM, first compound 1 µM): 54% | viability, T/C (second compound 0.3 µM, first compound 3.16 µM): 44.7% | viability, T/C (second compound 0.3 µM, first compound 10 µM): 38.4% | viability, T/C (second compound 0.949 µM, first compound 0.0316 µM): 63.6% | viability, T/C (second compound 0.949 µM, first compound 0.1 µM): 66% | viability, T/C (second compound 0.949 µM, first compound 0.316 µM): 60.5% | viability, T/C (second compound 0.949 µM, first compound 1 µM): 51% | viability, T/C (second compound 0.949 µM, first compound 3.16 µM): 46.5% | viability, T/C (second compound 0.949 µM, first compound 10 µM): 30% | viability, T/C (second compound 3 µM, first compound 0.0316 µM): 36.6% | viability, T/C (second compound 3 µM, first compound 0.1 µM): 42.4% | viability, T/C (second compound 3 µM, first compound 0.316 µM): 36.1% | viability, T/C (second compound 3 µM, first compound 1 µM): 32.4% | viability, T/C (second compound 3 µM, first compound 3.16 µM): 20.1% | viability, T/C (second compound 3 µM, first compound 10 µM): 17.4%

NC(=O)C(=Cn1cnc(-c2cc(C(F)(F)F)cc(C(F)(F)F)c2)n1)c1cncnc1 + CCN1C(C(=O)NC23CCC(C(=O)O)(CC2)CC3)C(c2cccc(Cl)c2F)C2(C(=O)Nc3cc(Cl)ccc32)C12CCCCC2
IC50 (second compound 0.03 µM): > 300 nM | IC50 (second compound 0.0949 µM): 77.4 nM | IC50 (second compound 0.3 µM): 6.42 nM | IC50 (second compound 0.949 µM): < 0.949 nM | IC50 (second compound 3 µM): < 0.949 nM | viability, T/C (second compound 0.03 µM, first compound 0.000949 µM): 89.7% | viability, T/C (second compound 0.03 µM, first compound 0.003 µM): 93.4% | viability, T/C (second compound 0.03 µM, first compound 0.00949 µM): 88.1% | viability, T/C (second compound 0.03 µM, first compound 0.03 µM): 83.7% | viability, T/C (second compound 0.03 µM, first compound 0.0949 µM): 73.8% | viability, T/C (second compound 0.03 µM, first compound 0.3 µM): 56.2% | viability, T/C (second compound 0.0949 µM, first compound 0.000949 µM): 84.4% | viability, T/C (second compound 0.0949 µM, first compound 0.003 µM): 85.4% | viability, T/C (second compound 0.0949 µM, first compound 0.00949 µM): 75.5% | viability, T/C (second compound 0.0949 µM, first compound 0.03 µM): 61.3% | viability, T/C (second compound 0.0949 µM, first compound 0.0949 µM): 48.8% | viability, T/C (second compound 0.0949 µM, first compound 0.3 µM): 28.9% | viability, T/C (second compound 0.3 µM, first compound 0.000949 µM): 60% | viability, T/C (second compound 0.3 µM, first compound 0.003 µM): 57.2% | viability, T/C (second compound 0.3 µM, first compound 0.00949 µM): 48.2% | viability, T/C (second compound 0.3 µM, first compound 0.03 µM): 32.6% | viability, T/C (second compound 0.3 µM, first compound 0.0949 µM): 24.9% | viability, T/C (second compound 0.3 µM, first compound 0.3 µM): 6.51% | viability, T/C (second compound 0.949 µM, first compound 0.000949 µM): 49.2% | viability, T/C (second compound 0.949 µM, first compound 0.003 µM): 48.9% | viability, T/C (second compound 0.949 µM, first compound 0.00949 µM): 35.5% | viability, T/C (second compound 0.949 µM, first compound 0.03 µM): 11.2% | viability, T/C (second compound 0.949 µM, first compound 0.0949 µM): 3.85% | viability, T/C (second compound 0.949 µM, first compound 0.3 µM): 0.63% | viability, T/C (second compound 3 µM, first compound 0.000949 µM): 39.3% | viability, T/C (second compound 3 µM, first compound 0.003 µM): 32.4% | viability, T/C (second compound 3 µM, first compound 0.00949 µM): 17.5% | viability, T/C (second compound 3 µM, first compound 0.03 µM): 3.73% | viability, T/C (second compound 3 µM, first compound 0.0949 µM): 1.87% | viability, T/C (second compound 3 µM, first compound 0.3 µM): 0.41%
